Data taken from patent US9949475B2, “Composition comprising active ingredient, oil and ionic liquid” (priority 2011, dated 2018).
Values after ≈ are worked out from the molar mass of the structure shown. Read-outs that look alike come from different tables or passages of the source. Values belong to the molecule of their own block, whether it stands above or below them.

Test: Solubility of UV absorber in oil comprising ionic liquid
Format: physicochemical
Conditions: for solubility: 21 °C, thermodynamic from solid, read-out: Solubility of Tinosorb ® S with Cetiol ® B as oil; for Solubility of Uvinul ® T150 with Cetiol ® B as oil: 21° C.
Procedure: For this, increasing amounts of active ingredient were added stepwise to oil (Cetiol® B or Solvesso®), which comprised the ionic liquid, until the maximum solubility was reached. Alternatively, the oil, which comprised the ionic liquid, was saturated with the active ingredient and the soluble fraction of active ingredient was quantified by means of HPLC.

- solubility (neat ionic liquid (no oil), organic solvent or mixture, 100 IL (no oil), IL N-butyl-N′-methylimidazolium acetate): 1 mg/mL (≈ 1590 µM)
- solubility (neat ionic liquid (no oil), organic solvent or mixture, 100 IL (no oil), IL N-ethyl-N′-ethylimidazolium heptanoate): 1 mg/mL (≈ 1590 µM)
- solubility (neat ionic liquid (no oil), organic solvent or mixture, 100 IL (no oil), IL N-ethyl-N′-ethylimidazolium octanoate): 1 mg/mL (≈ 1590 µM)
- solubility (neat ionic liquid (no oil), organic solvent or mixture, 100 IL (no oil), IL N-ethyl-N′-methylimidazolium isononanoate): 9.5 mg/mL (≈ 15100 µM)
- solubility (neat oil (no ionic liquid), oil or lipid, 100 Oil (Cetiol B, no IL)): 6.2 mg/mL (≈ 9880 µM)
- solubility (oil/ionic liquid mixture, oil or lipid, Oil/IL 20/80 weight ratio, IL N-butyl-N′-methylimidazolium acetate): 12.4 mg/mL
- solubility (oil/ionic liquid mixture, oil or lipid, Oil/IL 20/80 weight ratio, IL N-ethyl-N′-ethylimidazolium octanoate): 16.7 mg/mL
- solubility (oil/ionic liquid mixture, oil or lipid, Oil/IL 20/80 weight ratio, IL N-ethyl-N′-methylimidazolium isononanoate): 19.2 mg/mL
- solubility (oil/ionic liquid mixture, oil or lipid, Oil/IL 60/40 weight ratio, IL N-butyl-N′-methylimidazolium acetate): 14.3 mg/mL
- solubility (oil/ionic liquid mixture, oil or lipid, Oil/IL 60/40 weight ratio, IL N-ethyl-N′-ethylimidazolium heptanoate): 21.9 mg/mL
- solubility (oil/ionic liquid mixture, oil or lipid, Oil/IL 60/40 weight ratio, IL N-ethyl-N′-ethylimidazolium octanoate): 21.9 mg/mL
- solubility (oil/ionic liquid mixture, oil or lipid, Oil/IL 60/40 weight ratio, IL N-ethyl-N′-methylimidazolium isononanoate): 22.4 mg/mL
- solubility (oil/ionic liquid mixture, oil or lipid, Oil/IL 90/10 weight ratio, IL N-butyl-N′-methylimidazolium acetate): 11.7 mg/mL
- solubility (oil/ionic liquid mixture, oil or lipid, Oil/IL 90/10 weight ratio, IL N-ethyl-N′-ethylimidazolium heptanoate): 13 mg/mL
- solubility (oil/ionic liquid mixture, oil or lipid, Oil/IL 90/10 weight ratio, IL N-ethyl-N′-ethylimidazolium octanoate): 13 mg/mL
- solubility (oil/ionic liquid mixture, oil or lipid, Oil/IL 90/10 weight ratio, IL N-ethyl-N′-methylimidazolium isononanoate): 13.8 mg/mL
SMILES: CCCCC(CC)COc1ccc(-c2nc(-c3ccc(OC)cc3)nc(-c3ccc(OCC(CC)CCCC)cc3O)n2)c(O)c1 (centres unmarked) [Tinosorb ® S, bis-ethylhexyloxyphenol methoxyphenyl triazine]

- Solubility of Uvinul ® T150 with Cetiol ® B as oil (100 IL (no oil), IL Cholinium [2-(2-methoxyethoxy)ethoxy]acetate): 1 mg/mL
- Solubility of Uvinul ® T150 with Cetiol ® B as oil (100 IL (no oil), IL N-butyl-N′-methylimidazolium acetate): 5 mg/mL
- Solubility of Uvinul ® T150 with Cetiol ® B as oil (100 IL (no oil), IL N-ethyl-N′-ethylimidazolium propionate): 5 mg/mL
- Solubility of Uvinul ® T150 with Cetiol ® B as oil (100 IL (no oil), IL N-ethyl-N′-methylimidazolium acetate): 1 mg/mL
- Solubility of Uvinul ® T150 with Cetiol ® B as oil (100 IL (no oil), IL N-ethyl-N′-methylimidazolium isononanoate): 1 mg/mL
- Solubility of Uvinul ® T150 with Cetiol ® B as oil (100 Oil (Cetiol B, no IL)): 14.2 mg/mL
- Solubility of Uvinul ® T150 with Cetiol ® B as oil (Oil/IL 20/80 weight ratio, IL N-butyl-N′-methylimidazolium acetate): 41.5 mg/mL
- Solubility of Uvinul ® T150 with Cetiol ® B as oil (Oil/IL 20/80 weight ratio, IL N-ethyl-N′-ethylimidazolium propionate): 44.1 mg/mL
- Solubility of Uvinul ® T150 with Cetiol ® B as oil (Oil/IL 20/80 weight ratio, IL N-ethyl-N′-methylimidazolium acetate): 40.8 mg/mL
- Solubility of Uvinul ® T150 with Cetiol ® B as oil (Oil/IL 20/80 weight ratio, IL N-ethyl-N′-methylimidazolium isononanoate): 34.8 mg/mL
- Solubility of Uvinul ® T150 with Cetiol ® B as oil (Oil/IL 60/40 weight ratio, IL N-butyl-N′-methylimidazolium acetate): 54.1 mg/mL
- Solubility of Uvinul ® T150 with Cetiol ® B as oil (Oil/IL 60/40 weight ratio, IL N-ethyl-N′-ethylimidazolium propionate): 54.3 mg/mL
- Solubility of Uvinul ® T150 with Cetiol ® B as oil (Oil/IL 60/40 weight ratio, IL N-ethyl-N′-methylimidazolium acetate): 52.8 mg/mL
- Solubility of Uvinul ® T150 with Cetiol ® B as oil (Oil/IL 60/40 weight ratio, IL N-ethyl-N′-methylimidazolium isononanoate): 45.7 mg/mL
- Solubility of Uvinul ® T150 with Cetiol ® B as oil (Oil/IL 90/10 weight ratio, IL Cholinium [2-(2-methoxyethoxy)ethoxy]acetate): 21.3 mg/mL
- Solubility of Uvinul ® T150 with Cetiol ® B as oil (Oil/IL 90/10 weight ratio, IL N-butyl-N′-methylimidazolium acetate): 37.5 mg/mL
- Solubility of Uvinul ® T150 with Cetiol ® B as oil (Oil/IL 90/10 weight ratio, IL N-ethyl-N′-ethylimidazolium propionate): 33.3 mg/mL
- Solubility of Uvinul ® T150 with Cetiol ® B as oil (Oil/IL 90/10 weight ratio, IL N-ethyl-N′-methylimidazolium acetate): 37.5 mg/mL
- Solubility of Uvinul ® T150 with Cetiol ® B as oil (Oil/IL 90/10 weight ratio, IL N-ethyl-N′-methylimidazolium isononanoate): 32.4 mg/mL
SMILES: CCCCC(CC)COC(=O)c1ccc(Nc2nc(Nc3ccc(C(=O)OCC(CC)CCCC)cc3)nc(Nc3ccc(C(=O)OCC(CC)CCCC)cc3)n2)cc1 (centres unmarked) [Uvinul ® T150, 2,4,6-trianilino-p-(carbo-2′-ethylhexyl-1′-oxy)-1,3,5-triazine]
